For one data set, the target named is human MDR1 P-gp (Homo sapiens (Human), UniProt P08183). Kind of data set: MDCK assay: efflux in MDCK cells transfected with the human MDR1 gene (assay 3). It is filed as in vitro ADME. As to conditions: MDCK-MDR1 cell monolayers, pH 7.4, 37° C., read-out: MDCK efflux ratio (BA/AB). As for the experimental part:
C. Assessment of Efflux in Madin-Darby Canine Kidney Cells Transfected with the Human MDR1 Gene (MDCK Assay) (Assay 3)
Apparent permeability coefficients (PE) of the compounds across the MDCK-MDR1 cell monolayers are measured (pH 7.4, 37° C.) in apical-to-basal (AB) and basal-to-apical (BA) transport direction. AB permeability (PEAB) represents drug absorption from the blood into the brain and BA permeability (PEBA) drug efflux from the brain back into the blood via both passive permeability as well as active transport mechanisms mediated by efflux and uptake transporters that are expressed on the MDCK-MDR1 cells, predominantly by the overexpressed human MDR1 P-gp. The compounds are assigned to permeability/absorption classes by comparison of the AB permeabilities with the AB permeabilities of reference compounds with known in vitro permeability and oral absorption in the human. Identical or similar permeabilities in both transport directions indicate passive permeation, vectorial permeability points to additional active transport mechanisms. Higher PEBA than PEAB indicates the involvement of active efflux mediated by MDR1 P-gp. Active transport is concentration-dependently saturable.
MDCK-MDR1 cells (1-2×10e5 cells/1 cm2 area) are seeded on filter inserts (Costar transwell polycarbonate or PET filters, 0.4 μm pore size) and cultured (DMEM) for 7 days. Subsequently, the MDR1 expression is boosted by culturing the cells with 5 mM sodium butyrate in full medium for 2 days. Compounds are dissolved in appropriate solvent (like DMSO, 1-20 mM stock solutions). Stock solutions are diluted with HTP-4 buffer (128.13 mM NaCl, 5.36 mM KCl, 1 mM MgSO4, 1.8 mM CaCl2, 4.17 mM NaHCO3, 1.19 mM Na2HPO4×7H2O, 0.41 mM NaH2PO4×H2O, 15 mM HEPES, 20 mM glucose, 0.25% BSA, pH 7.4) to prepare the transport solutions (0.1-300 μM compound, final DMSO<=0.5%). The transport solution (TL) is applied to the apical or basolateral donor side for measuring A-B or B-A permeability (3 filter replicates), respectively. The receiver side contains the same buffer as the donor side. Samples are collected at the start and end of experiment from the donor and at various time intervals for up to 2 hours also from the receiver side for concentration measurement by HPLC-MS/MS or scintillation counting. Sampled receiver volumes are replaced with fresh receiver solution.

A further data set concerns the target human CB1R (Homo sapiens (Human), UniProt P21554). Kind of data set: CB1 cAMP (assay 2). The class given is cell-based. The conditions noted are these: CHO cells expressing human CB1R; inhibition of forskolin-stimulated cAMP.

Sequence of human MDR1 P-gp (P08183 whole entry): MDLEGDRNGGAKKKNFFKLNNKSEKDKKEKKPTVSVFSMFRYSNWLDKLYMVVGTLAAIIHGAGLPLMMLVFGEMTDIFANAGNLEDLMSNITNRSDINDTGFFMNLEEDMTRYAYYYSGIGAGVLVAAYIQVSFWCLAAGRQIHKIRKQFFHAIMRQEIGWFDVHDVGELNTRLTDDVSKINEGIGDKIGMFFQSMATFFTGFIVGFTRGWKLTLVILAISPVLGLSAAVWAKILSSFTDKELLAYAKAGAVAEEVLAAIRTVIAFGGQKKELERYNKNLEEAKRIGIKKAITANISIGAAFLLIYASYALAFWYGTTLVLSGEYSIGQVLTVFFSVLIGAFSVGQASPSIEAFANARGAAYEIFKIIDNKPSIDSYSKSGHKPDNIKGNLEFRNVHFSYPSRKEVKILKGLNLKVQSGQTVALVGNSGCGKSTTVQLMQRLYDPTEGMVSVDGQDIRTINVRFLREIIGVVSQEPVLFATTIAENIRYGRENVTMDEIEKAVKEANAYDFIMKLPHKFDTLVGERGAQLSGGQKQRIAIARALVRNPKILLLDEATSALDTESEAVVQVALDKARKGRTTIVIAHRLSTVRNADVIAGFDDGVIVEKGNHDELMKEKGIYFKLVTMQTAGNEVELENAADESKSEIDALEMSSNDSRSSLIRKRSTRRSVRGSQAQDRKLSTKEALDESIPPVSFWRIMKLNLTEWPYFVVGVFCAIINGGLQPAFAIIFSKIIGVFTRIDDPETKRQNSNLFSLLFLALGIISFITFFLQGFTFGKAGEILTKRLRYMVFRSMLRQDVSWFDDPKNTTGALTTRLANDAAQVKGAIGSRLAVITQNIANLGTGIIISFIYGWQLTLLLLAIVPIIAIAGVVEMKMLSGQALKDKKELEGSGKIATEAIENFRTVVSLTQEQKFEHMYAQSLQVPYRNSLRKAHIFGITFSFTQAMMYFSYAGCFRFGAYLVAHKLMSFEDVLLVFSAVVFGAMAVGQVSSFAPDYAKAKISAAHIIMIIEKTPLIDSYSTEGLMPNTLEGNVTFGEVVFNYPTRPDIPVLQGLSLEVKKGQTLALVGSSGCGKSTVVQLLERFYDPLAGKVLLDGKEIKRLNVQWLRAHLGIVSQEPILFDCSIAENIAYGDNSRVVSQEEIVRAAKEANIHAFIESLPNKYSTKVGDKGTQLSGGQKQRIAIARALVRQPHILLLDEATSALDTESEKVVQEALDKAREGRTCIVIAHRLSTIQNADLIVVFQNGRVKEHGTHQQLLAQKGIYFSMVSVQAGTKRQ
Sequence of human CB1R (P21554 whole entry): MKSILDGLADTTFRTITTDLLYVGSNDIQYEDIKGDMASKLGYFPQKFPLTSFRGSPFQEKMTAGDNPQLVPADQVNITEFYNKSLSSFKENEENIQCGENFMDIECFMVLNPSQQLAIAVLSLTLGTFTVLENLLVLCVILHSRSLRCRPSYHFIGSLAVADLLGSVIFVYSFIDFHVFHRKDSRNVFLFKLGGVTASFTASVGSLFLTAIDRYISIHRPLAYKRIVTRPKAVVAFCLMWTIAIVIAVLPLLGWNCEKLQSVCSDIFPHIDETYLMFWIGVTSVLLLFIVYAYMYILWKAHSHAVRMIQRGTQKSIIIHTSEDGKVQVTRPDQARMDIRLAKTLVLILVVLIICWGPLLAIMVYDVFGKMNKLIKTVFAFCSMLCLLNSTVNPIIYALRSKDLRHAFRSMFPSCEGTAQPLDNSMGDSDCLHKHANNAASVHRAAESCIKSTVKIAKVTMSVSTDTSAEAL

Take `CC(C)(C#N)c1cc(NC(=O)C(C)(C)S(=O)(=O)CCCC(F)(F)F)on1` [Example 1, N-[3-(Cyano-dimethyl-methyl)-isoxazol-5-yl]-2-methyl-2-(4,4,4-trifluoro-butane-1-sulfonyl)-propionamide]: on human MDR1 P-gp, the efflux ratio was 2.2.
For `CC(C)(C#N)c1cc(NC(=O)C(C)(C)S(=O)(=O)C2CCOCC2)on1` [Example 3], the efflux ratio on human MDR1 P-gp was found to be 2.5.
On the same count and under the same terms, then `CN(CC1CCOCC1)C(C)(C)C(=O)Nc1nnc(C(C)(C)CO)s1` [Example 30 in WO2010147792], with 5.2; and `CC(C)(O)c1cc(NC(=O)C(C)(C)S(=O)(=O)C2CCOCC2)on1` [Example 133 WO2010036630], with 4.7; and `CC(C)(CO)c1cc(NC(=O)C(C)(C)S(=O)(=O)C2CCOCC2)on1` [Example 2 in WO2010036630], with 7.4.
Take `CN(C1CCN(S(C)(=O)=O)CC1)C(C)(C)C(=O)Nc1cc(C(C)(C)CO)no1` [Example 47 in WO2010147792]: the efflux ratio at human MDR1 P-gp is 14.
For `CN(CC1CCOCC1)C(C)(C)C(=O)Nc1cc(C(C)(C)CO)no1` [Example 7 in WO2010147792], at human MDR1 P-gp, the efflux ratio amounted to 1.2.
As usually defined, the EC50 is the concentration at which the effect is half-maximal. A low value points to greater potency. As for `CC(C)(CO)c1cc(NC(=O)C(C)(C)S(=O)(=O)CC2CCOCC2)on1` [Example 1 in WO2010036630], the efflux ratio at human MDR1 P-gp turned out to be 16. Also, the EC50 at human CB1R is over 50 µM.
Consider `COCC(C)(C)c1cc(NC(=O)C(C)(C)N(C)CC2CCOCC2)on1` [Example 46 in WO2010147792], for which the efflux ratio on human MDR1 P-gp was found to be 0.63.
Consider `COCC(C)(C)c1cc(NC(=O)C(C)(C)S(=O)(=O)C2CCOCC2)on1` [Example 38 in WO2010036630], for which the efflux ratio at human MDR1 P-gp stood at 2.3. Also, on human CB1R, the midpoint of the response, the EC50, lay at 50 µM.
For the compound `CC(C)(C#N)c1cc(NC(=O)C(C)(C)S(=O)(=O)CC2CCOCC2)on1` [Example 2, N-[3-(Cyano-dimethyl-methyl)-isoxazol-5-yl]-2-methyl-2-(tetrahydro-pyran-4-ylmethanesulfonyl)-propionamide], the efflux ratio on human MDR1 P-gp stood at 6.5.
The same measure, in the same setting: then `CN(CC1CCOCC1)C(C)(C)C(=O)Nc1cc(C(C)(C)C#N)no1` [Example 4], with 0.75.
For the compound `COCC(C)(C)c1cc(NC(=O)C(C)(C)S(=O)(=O)CC2CCOCC2)on1` [Example 17 in WO2010036630], on human MDR1 P-gp, the efflux ratio turned out to be 4.8.
Still for that read-out and setting: the figure for `CN(CC1CCOCC1)C(C)(C)C(=O)Nc1nnc(C(C)(C)C#N)s1` [Example 7, N-[5-(Cyano-dimethyl-methyl)-[1,3,4]thiadiazol-2-yl]-2-methyl-2-[methyl-(tetrahydro-pyran-4-ylmethyl)-amino]-propionamide] is 2.1; for `CN(C1CCN(S(C)(=O)=O)CC1)C(C)(C)C(=O)Nc1cc(C(C)(C)C#N)no1` [Example 5] it is 5.1; for `CN(C1CCN(S(C)(=O)=O)CC1)C(C)(C)C(=O)Nc1nnc(C(C)(C)C#N)s1` [Example 8] it is 16.

For the origin of these results see US10112934B2, “(Cyano-dimethyl-methyl)-isoxazoles and -[1,3,4]thiadiazoles” (Centrexion Therapeutics Corporation, priority 2013, dated 2018).
